In patent US20090264384A1, “INDOLE, BENZIMIDAZOLE, AND BENZOLACTAM BORONIC ACID COMPOUNDS, ANALOGS THEREOF AND METHODS OF USE THEREOF” (Nuada, Inc., priority 2004, published 2009):

Assays:
[1] = biological target: T1, B1(h) (Homo sapiens, UniProt P46663); assay: B1(h) binding assay; details: 1.0E−05 M; read-out: % Inhibition of Control Specific Binding
T1 construct: expressed in transfected cells; host or cells: CHO cells

[2] = biological target: T2, D3(h) (Homo sapiens, UniProt P35462); assay: D3(h) binding assay; details: 1.0E−05 M; read-out: % Inhibition of Control Specific Binding
T2 construct: expressed in transfected cells; host or cells: CHO cells

[3] = biological target: Ca^2+ channel (L, diltiazem site) (benzothiazepines) (Rattus norvegicus, UniProt P22002); assay: Ca^2+ channel (L, diltiazem site) binding assay; details: read-out: % Inhibition of Control Specific Binding
[4] = biological target: T3, A1(h) (Homo sapiens, UniProt P30542); assay: A1(h) binding assay; details: 1.0E−05 M; read-out: % Inhibition of Control Specific Binding
T3 construct: expressed in transfected cells; host or cells: CHO cells

[5] = test system: M (non-selective); assay: M (non-selective) binding assay; parameters: species or system rat; details: 1.0E−05 M
[6] = test system: H3; assay: H3 binding assay; parameters: species or system rat; details: 1.0E−05 M
[7] = biological target: D4.4(h) (Homo sapiens, UniProt P21917); assay: biochemical; details: 1.0E−05 M; read-out: % Inhibition of Control Specific Binding
[8] = biological target: T4, K^+ATP channel (Rattus norvegicus, UniProt Q09429); assay: K^+ATP channel binding assay; details: 1.0E−05 M; read-out: % Inhibition of Control Specific Binding
T4 construct: rat cerebral; from tissue; host or cells: rat cerebral cortex

[9] = test system: K^+V channel; assay: K^+V channel binding assay; parameters: species or system rat; details: 1.0E−05 M
[10] = biological target: T5, Phosphodiesterase 2(h) (Homo sapiens, UniProt O00408); assay: Phosphodiesterase 2(h) enzyme assay; format: biochemical; details: 1.0E−05 M
T5 construct: differentiated U-; endogenous in cells; host or cells: differentiated U-937 cells

[11] = test system: Y (non-selective); assay: Y (non-selective) binding assay; parameters: species or system rat; details: 1.0E−05 M
[12] = test system: Catechol-O-methyl transferase; assay: Catechol-O-methyl transferase enzyme assay; format: biochemical, porcine; details: 1.0E−05 M
[13] = biological target: T6, D1(h) (Homo sapiens, UniProt P21728); assay: D1(h) binding assay; details: read-out: % Inhibition of Control Specific Binding
T6 construct: expressed in transfected cells; host or cells: CHO cells

[14] = biological target: N (neuronal) (α-BGTX-insensitive) (Rattus norvegicus, UniProt P09483+P12390); assay: N (neuronal) (α-BGTX-insensitive) binding assay; details: 1.0E−05 M; read-out: % Inhibition of Control Specific Binding
[15] = biological target: T7, D2S(h) (Homo sapiens, UniProt P14416); assay: biochemical; format: binding; details: 1.0E−05 M; read-out: % Inhibition of Control Specific Binding
T7 construct: expressed in transfected cells; host or cells: CHO cells
T7 sequence (P14416 1-414 isoform P14416-2): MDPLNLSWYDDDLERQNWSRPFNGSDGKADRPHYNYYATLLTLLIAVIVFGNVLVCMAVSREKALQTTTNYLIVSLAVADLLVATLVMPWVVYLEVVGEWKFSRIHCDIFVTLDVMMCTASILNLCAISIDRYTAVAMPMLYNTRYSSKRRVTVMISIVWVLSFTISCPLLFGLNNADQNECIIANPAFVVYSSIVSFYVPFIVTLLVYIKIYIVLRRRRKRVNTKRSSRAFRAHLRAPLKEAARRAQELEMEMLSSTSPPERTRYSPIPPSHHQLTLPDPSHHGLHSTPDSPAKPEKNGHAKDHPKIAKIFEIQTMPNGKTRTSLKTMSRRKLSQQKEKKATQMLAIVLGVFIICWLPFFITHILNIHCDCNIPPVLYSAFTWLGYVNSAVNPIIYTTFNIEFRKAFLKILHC

T3 sequence (P30542 whole entry): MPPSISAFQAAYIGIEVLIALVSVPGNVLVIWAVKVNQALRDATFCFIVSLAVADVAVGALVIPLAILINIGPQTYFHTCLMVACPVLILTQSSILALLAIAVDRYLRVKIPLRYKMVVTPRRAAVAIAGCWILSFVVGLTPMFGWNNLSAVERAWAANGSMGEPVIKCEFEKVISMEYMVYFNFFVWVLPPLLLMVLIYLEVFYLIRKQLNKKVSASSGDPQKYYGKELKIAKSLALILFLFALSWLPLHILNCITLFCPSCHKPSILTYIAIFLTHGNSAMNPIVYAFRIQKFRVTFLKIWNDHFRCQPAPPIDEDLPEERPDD
T2 sequence (P35462 whole entry): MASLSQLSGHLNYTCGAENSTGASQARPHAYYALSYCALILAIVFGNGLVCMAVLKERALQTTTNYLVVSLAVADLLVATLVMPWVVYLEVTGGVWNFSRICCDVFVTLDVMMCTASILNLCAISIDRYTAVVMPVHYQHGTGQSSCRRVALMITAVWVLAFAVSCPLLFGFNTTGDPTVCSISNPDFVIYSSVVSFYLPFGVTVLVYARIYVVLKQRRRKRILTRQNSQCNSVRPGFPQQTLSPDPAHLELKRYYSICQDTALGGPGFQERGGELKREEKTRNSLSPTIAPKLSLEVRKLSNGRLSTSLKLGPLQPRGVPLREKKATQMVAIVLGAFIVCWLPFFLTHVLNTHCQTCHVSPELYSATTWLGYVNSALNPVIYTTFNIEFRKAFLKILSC
T4 sequence (Q09429 whole entry): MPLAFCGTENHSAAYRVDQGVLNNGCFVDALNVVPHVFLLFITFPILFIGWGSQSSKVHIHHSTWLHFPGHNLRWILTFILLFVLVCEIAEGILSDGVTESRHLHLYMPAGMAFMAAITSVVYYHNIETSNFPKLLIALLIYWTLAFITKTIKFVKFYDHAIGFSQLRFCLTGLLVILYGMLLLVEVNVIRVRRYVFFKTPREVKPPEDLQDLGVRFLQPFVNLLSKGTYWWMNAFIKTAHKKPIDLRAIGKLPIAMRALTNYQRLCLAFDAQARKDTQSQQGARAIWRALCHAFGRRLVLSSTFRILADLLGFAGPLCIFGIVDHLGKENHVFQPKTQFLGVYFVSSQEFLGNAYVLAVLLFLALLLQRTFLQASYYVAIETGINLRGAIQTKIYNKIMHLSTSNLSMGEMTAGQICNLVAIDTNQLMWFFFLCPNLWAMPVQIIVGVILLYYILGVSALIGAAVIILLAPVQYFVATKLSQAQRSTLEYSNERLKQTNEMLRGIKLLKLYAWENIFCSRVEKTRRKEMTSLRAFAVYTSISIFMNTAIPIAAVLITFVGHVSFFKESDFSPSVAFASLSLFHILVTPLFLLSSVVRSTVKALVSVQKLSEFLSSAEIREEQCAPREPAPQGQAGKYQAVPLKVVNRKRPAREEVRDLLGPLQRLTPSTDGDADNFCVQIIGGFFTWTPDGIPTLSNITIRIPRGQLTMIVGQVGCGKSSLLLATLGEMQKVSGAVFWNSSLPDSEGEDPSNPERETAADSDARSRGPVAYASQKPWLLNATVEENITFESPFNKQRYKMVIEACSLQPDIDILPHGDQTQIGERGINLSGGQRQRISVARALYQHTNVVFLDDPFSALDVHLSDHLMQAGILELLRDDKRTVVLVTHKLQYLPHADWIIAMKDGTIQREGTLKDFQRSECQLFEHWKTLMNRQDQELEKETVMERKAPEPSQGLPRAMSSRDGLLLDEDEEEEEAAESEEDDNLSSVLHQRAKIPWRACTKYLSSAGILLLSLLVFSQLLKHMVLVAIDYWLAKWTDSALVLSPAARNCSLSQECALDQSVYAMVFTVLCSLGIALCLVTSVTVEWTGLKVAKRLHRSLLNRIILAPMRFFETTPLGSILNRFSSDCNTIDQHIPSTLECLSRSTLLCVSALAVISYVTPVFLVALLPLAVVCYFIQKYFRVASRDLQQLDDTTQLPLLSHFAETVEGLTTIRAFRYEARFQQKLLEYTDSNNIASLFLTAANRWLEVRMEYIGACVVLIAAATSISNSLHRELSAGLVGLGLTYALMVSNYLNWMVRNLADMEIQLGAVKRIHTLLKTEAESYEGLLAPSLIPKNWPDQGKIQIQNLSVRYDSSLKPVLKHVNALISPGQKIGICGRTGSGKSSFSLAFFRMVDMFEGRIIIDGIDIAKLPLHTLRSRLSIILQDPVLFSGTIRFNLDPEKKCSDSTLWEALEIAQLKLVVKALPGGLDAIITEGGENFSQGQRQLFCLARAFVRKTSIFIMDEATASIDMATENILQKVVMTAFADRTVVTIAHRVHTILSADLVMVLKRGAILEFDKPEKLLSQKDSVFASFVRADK
T4 sequence (P70673 whole entry partner): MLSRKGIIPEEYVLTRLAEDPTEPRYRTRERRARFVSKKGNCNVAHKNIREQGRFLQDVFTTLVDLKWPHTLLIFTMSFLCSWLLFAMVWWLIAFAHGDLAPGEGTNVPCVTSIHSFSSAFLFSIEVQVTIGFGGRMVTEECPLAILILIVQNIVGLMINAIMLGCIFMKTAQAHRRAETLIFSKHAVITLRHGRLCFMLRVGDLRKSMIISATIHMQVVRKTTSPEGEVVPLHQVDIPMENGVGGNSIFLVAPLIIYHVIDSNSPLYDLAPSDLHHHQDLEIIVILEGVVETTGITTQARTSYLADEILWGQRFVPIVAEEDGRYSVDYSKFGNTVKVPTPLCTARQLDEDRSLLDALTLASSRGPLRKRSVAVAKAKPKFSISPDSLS
T6 sequence (P21728 whole entry): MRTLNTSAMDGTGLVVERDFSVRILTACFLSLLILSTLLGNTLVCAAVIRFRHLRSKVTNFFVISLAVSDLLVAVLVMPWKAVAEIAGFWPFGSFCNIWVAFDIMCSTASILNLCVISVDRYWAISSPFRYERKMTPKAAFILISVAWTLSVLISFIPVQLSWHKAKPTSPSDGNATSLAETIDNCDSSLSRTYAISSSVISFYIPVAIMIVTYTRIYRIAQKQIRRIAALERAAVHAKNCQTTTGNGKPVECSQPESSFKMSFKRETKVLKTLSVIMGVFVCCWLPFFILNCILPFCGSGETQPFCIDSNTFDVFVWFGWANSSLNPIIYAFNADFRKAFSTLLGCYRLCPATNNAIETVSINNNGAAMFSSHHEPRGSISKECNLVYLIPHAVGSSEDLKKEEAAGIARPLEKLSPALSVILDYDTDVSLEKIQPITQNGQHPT
T1 sequence (P46663 whole entry): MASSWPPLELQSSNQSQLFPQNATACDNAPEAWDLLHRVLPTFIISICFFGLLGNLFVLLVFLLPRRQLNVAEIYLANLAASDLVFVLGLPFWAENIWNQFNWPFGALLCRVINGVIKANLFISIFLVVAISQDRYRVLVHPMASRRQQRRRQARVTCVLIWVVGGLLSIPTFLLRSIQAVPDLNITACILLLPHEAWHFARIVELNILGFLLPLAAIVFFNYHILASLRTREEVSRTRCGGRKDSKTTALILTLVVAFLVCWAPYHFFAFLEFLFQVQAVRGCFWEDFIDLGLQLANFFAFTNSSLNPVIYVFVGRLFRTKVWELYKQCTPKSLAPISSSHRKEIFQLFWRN
T5 sequence (O00408 whole entry): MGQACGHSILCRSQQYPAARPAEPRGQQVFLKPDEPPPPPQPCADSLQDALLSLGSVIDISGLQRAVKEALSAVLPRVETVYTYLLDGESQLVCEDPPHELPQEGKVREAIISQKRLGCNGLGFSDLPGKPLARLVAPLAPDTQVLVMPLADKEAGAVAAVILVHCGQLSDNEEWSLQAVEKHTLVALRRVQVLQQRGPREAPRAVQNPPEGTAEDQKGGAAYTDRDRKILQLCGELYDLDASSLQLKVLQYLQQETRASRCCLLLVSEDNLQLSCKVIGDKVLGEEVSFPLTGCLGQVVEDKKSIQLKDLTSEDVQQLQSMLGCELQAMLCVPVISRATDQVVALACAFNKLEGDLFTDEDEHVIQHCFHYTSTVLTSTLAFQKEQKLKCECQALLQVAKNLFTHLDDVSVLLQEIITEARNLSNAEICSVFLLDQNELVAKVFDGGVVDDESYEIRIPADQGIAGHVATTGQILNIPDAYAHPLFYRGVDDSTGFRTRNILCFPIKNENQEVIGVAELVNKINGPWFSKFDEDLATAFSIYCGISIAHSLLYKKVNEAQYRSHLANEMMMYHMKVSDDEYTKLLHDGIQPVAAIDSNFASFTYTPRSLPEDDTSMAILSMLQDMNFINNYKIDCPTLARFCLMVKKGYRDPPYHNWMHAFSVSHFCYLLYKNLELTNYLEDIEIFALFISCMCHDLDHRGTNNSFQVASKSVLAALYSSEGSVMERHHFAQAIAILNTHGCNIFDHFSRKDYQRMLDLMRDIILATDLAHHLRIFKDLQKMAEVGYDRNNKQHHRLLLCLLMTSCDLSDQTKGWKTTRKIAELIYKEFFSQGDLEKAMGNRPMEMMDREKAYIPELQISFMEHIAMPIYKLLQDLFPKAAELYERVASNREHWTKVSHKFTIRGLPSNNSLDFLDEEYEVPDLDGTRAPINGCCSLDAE

N#Cc1ccc2c(ccn2CCCCCB(O)O)c1 [Example 20, 5-(5-cyano-1H-indol-1-yl)pentylboronic acid]
inhibition at 10 µM [1]: -5%
inhibition at 10 µM [2]: 4%
inhibition at 10 µM [3]: -1%
inhibition at 10 µM [4]: 7%
% Inhibition of Control Specific Binding [5]: −4%
% Inhibition of Control Specific Binding [6]: 0%
inhibition at 10 µM [7]: 1%
inhibition at 10 µM [8]: 25%
% Inhibition of Control Specific Binding [9]: −5%
% Inhibition of Control Values [10]: 95%
% Inhibition of Control Specific Binding [11]: 14%
% Inhibition of Control Values [12]: −5%
inhibition at 10 µM [13]: 0%
inhibition at 10 µM [14]: 12%
inhibition at 10 µM [15]: 23%
